Laboratory results taken from US9796665B2 (priority 2013, dated 2017).

What was measured:
[1] = system: oxazolone-induced atopic dermatitis animal model; assay: Mast cells in skin of atopic dermatitis animal model (toluidine blue staining); type: in vivo, hairless mice; conditions: FIG. 9
Procedure: In order to evaluate whether or not the novel compound according to the present invention suppresses the activities of mast cells in an atopic dermatitis animal model, first, hairless mice were treated with oxazolone (Sigma), thereby establishing an atopic dermatitis animal model. More specifically, on day 1, mice were sensitized with 1% oxazolone in acetone on the back, and after 1 week, the mice were treated with 0.1% oxazolone in acetone on the back every other day for 2 weeks, thereby inducing atopic dermatitis on the back skin of the mice. Thereafter, the compound (1%) according to the present invention was dissolved in a solution in which polyethylene glycol (PEG, Sigma) and ethanol were mixed with each other at a ratio of 7:3, and the mice were treated with the obtained compound solution on the back once in the morning and evening for 10 days. Then, skin biopsy was taken and stained with toluidine blue solution (Sigma), thereby confirming presence of mast cells. […] The mast cells in the skin as described above release various kinds of inflammatory cytokines, thereby aggregating atopic dermatitis. […] The number of mast cells present on the skin in each of the groups was statistically analyzed and illustrated by a graph. […]

[2] = system: RBL-2H3 cells (rat basophilic leukemia cells); assay: Histamine release of mast cells activated by PAR-2 agonist SLIGRL; type: cell-based; conditions: FIG. 4
Procedure: The PAR-2, which is a receptor activated by protease (tryptase, chymase, and the like) present outside cells, induces degranulation on surfaces of the mast cells. In order to confirm whether or not the ceramide derivative compound according to the present invention suppresses activities of the mast cells by PAR-2, RBL-2H3 cells (rat basophilic leukemia cells) corresponding to one kind of mast cells were cultured in a DMEM medium containing 10% FBS in a 24-well plate, and then treated with the compound for 2 hours. Thereafter, in order to induce degranulation of the mast cells, the cells were treated with 10 μM SLIGRL peptide, which is a PAR-2 agonist, for 1 hour. The concentration of histamine released outside the cells was measured using a HTRF histamine assay kit (Cisbio). 10 μl of a medium supernatant of the cells was treated with anti-histamine cryptate conjugate and histamine-d2 according to the manufacturer's manual at room temperature for 2 hours. Thereafter, fluorescence was measured at 665 nm and 620 nm and compensated by a ratio of 665 nm/620 nm, and then, the concentration of histamine in the cells was measured using a standard curve. […] Therefore, the novel ceramide derivative according to the present invention, which is the novel cannabinoid receptor agonist, is a compound effectively suppressing the activities of the mast cells.

[3] = system: oxazolone-induced atopic dermatitis animal model; assay: Oxazolone-induced atopic dermatitis animal model, skin thickness; type: in vivo, hairless mice; conditions: FIG. 7(A) and (B)
Procedure: (§1) In order to evaluate efficacy of the novel compound according to the present invention in an animal model, first, hairless mice were treated with oxazolone (Sigma), thereby establishing atopic dermatitis-like animal models. More specifically, on day 1, the mice were sensitized with 1% oxazolone in acetone on the back, and after 1 week, the mice were treated with 0.1% oxazolone in acetone on the back every other day for 2 weeks, thereby inducing atopic dermatitis-like symptoms. Thereafter, the compound (1%) according to the present invention was dissolved in a solution in which polyethylene glycol (PEG, Sigma) and ethanol were mixed with each other at a ratio of 7:3, and the mice were treated with the obtained compound solution on the back once in the morning and evening for 10 days. […] In addition, a skin thickness of each of the animal models was measured and illustrated by a graph. […] Therefore, the compound according to the present invention may be effective to treat atopic dermatitis.

[4] = molecular target: T1, cannabinoid receptor 1 (CB1R) (Homo sapiens, UniProt P21554); assay: cAMP production suppression in CHO cells over-expressing CB1R (HTRF cAMP assay, forskolin-induced); type: cell-based; conditions: for concentration of cAMP: 0-50 μM compound, 10 μM forskolin, FIG. 1; for Modulation: Target CB1R
T1 construct: host or cells: CHO cells over-expressing CB1R
T1 sequence (P21554 whole entry): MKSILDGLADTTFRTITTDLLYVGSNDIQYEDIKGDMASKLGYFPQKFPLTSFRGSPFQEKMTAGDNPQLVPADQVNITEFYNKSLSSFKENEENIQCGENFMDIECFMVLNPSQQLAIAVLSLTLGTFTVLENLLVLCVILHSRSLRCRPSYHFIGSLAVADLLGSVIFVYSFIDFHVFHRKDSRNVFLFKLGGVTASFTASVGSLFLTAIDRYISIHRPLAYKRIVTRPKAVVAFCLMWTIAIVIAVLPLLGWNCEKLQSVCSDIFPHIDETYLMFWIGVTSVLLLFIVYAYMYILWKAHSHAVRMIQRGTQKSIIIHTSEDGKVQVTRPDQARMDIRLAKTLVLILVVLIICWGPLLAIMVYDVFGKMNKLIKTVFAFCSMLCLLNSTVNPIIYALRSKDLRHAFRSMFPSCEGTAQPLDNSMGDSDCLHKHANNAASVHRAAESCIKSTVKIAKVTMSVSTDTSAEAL
Excerpt: cAMP production suppression efficacy by agonistic action of the synthesized materials was confirmed using CHO cells in which cannabinoid receptor 1 (CB1R) was over-expressed.
The CHO cells in which the cannabinoid receptor 1 (CB1R) was over-expressed were purchased from Chantest, and cultured in an F-12 medium (Gibco) containing 10% fetal bovine serum (FBS, Gibco). In order to conform an agonistic activity of a ceramide derivative compounds according to the present invention on the cannabinoid receptor, the cells were plated in a 96-well dish, cultured for 24 hours, and then, treated at concentrations of 0, 0.781, 1.562, 3.125, 6.25, 12.5, 25, and 50 μM (0.1% DMSO in PBS). The cells were treated with 10 μM Forskolin (Sigma), thereby inducing cAMP production by adenylyl cyclase in the cells. A concentration of cAMP in the cells was measured using a HTRF cAMP assay kit purchased from Cisbio. After dissolving the cells with lysis buffer in the kit according to the manufacturer's manual, anti-cAMP cryptate conjugate and cAMP-d2 in the kit were treated at room temperature for 2 hours. Thereafter, fluorescence was measured at 665 nm and 620 nm and compensated by a ratio of 665 nm/620 nm, and then, the concentration of cAMP in the cells was measured using a standard curve. Since activity of adenylyl cyclase was suppressed when the cannabinoid receptor 1 (CB1R) was activated, the cannabinoid receptor agonist according to the present invention suppresses production of cAMP in the cells. […] As illustrated in the following Table 1, it may be confirmed that the novel cannabinoid receptor agonists according to the present invention activate the cannabinoid receptor 1 (CB1R) when EC50 was 24 to 26 μM.

[5] = system: RBL-2H3 cells (rat basophilic leukemia cells); assay: Degranulation of mast cells activated by IgE antibody and antigen; type: cell-based; conditions: FIG. 3(A) and (B)
Procedure: In order to confirm whether or not the ceramide derivative compound according to the present invention suppresses activities of the mast cells, RBL-2H3 cells (rat basophilic leukemia cells) corresponding to one kind of mast cells were cultured in a DMEM medium containing 10% FBS in a 24-well plate, and then treated with the compound for 16 hours. In order to induce degranulation of the mast cells, the cells were treated with IgE antibody (0.2 μg/ml) and NP-BSA (0.1 μg/ml) for 1 hour, and then, concentrations of β-hexosaminidase and histamine released to the medium were measured. In detail, at the time of measuring the concentration of β-hexosaminidase, 50 μl of the medium was reacted together with 50 μl of p-nitrophenyl-nacetyl-β-d-glucosaminidine, (p-NAG, Sigma) at 37° C. for 2 hours, and then, the reaction was terminated by adding 200 μl of 0.2 M glycine (pH 10.6, Sigma). Absorbance at a wavelength of 405 nm was measured using a spectrometer. The concentration of histamine was measured using a HTRF histamine assay kit (Cisbio). […] Thereafter, fluorescence was measured at 665 nm and 620 nm and compensated by a ratio of 665 nm/620 nm, and then, the concentration of histamine in the cells was measured using a standard curve.

[6] = system: oxazolone-induced atopic dermatitis animal model; assay: IgE and histamine in blood in atopic dermatitis animal model; type: in vivo, hairless mice; conditions: for concentration of IgE antibody in the blood: FIG. 8(A); for concentration of histamine in the blood: FIG. 8(B)
Procedure: as §1
In order to evaluate efficacy of the novel compound according to the present invention in an atopic dermatitis animal model, after treating an oxazolone (Sigma)-induced atopic dermatitis animal model with the compound, concentrations of IgE antibody and histamine present in the blood were measured. The IgE and histamine in the blood are known as markers of atopic dermatitis and inflammatory dermatitis such as contact dermatitis, and as the disease aggregates, the concentrations thereof in the blood further increases. The increased IgE activated mast cells, and allowed the mast cells to release a large amount of inflammatory cytokines such as histamine.

[7] = system: RBL-2H3 cells (rat basophilic leukemia cells); assay: Degranulation of mast cells activated by ionomycin; type: cell-based; conditions: FIG. 2(A) and (B)
Procedure: In order to confirm whether or not the ceramide derivative compound according to the present invention suppresses activation of the mast cells, RBL-2H3 cells (rat basophilic leukemia cells) corresponding to one kind of mast cells were cultured in a DMEM medium containing 10% FBS in a 24-well plate, and then treated with the compound for 16 hours. In order to induce degranulation of the mast cells, the cells were treated with 2 μM ionomycin (Sigma), and after 30 minutes, concentrations of β-hexosaminidase and histamine released to the medium were measured. In detail, at the time of measuring the concentration of β-hexosaminidase, 50 μl of the medium was reacted together with 50 μl of p-nitrophenyl-nacetyl-β-d-glucosaminidine, (p-NAG, Sigma) at 37° C. for 2 hours, and then, the reaction was terminated by adding 200 μl of 0.2 M glycine (pH 10.6, Sigma). Absorbance at a wavelength of 405 nm was measured using a spectrometer. The concentration of histamine was measured using a HTRF histamine assay kit (Cisbio). 10 μl of a medium supernatant of the cells was treated with anti-histamine cryptate conjugate and histamine-d2 according to the manufacturer's manual at room temperature for 2 hours. Thereafter, fluorescence was measured at 665 nm and 620 nm and compensated by a ratio of 665 nm/620 nm, and then, the concentration of histamine in the cells was measured using a standard curve. […]

| SMILES | invasion of mast cells in a lesion site [1] | activation of mast cells by protease activated receptor 2 (PAR-2) [2] | skin damage [3] | concentration of cAMP [4] | Modulation [4] | activation of the mast cells by IgE antibody and antigen [5] | concentration of IgE antibody in the blood [6] | concentration of histamine in the blood [6] | activation of mast cells by ionomycin [7] |
| --- | --- | --- | --- | --- | --- | --- | --- | --- | --- |
| CCCCCCCC/C=C\CCCCCCCC(=O)C(CCCCCC/C=C\CCCCCCCC)C(=O)NC(CO)CO (stereo not drawn) [CBS007, (11Z)-2-((Z)-hexadec-7-enyl)-N-(1,3-dihydroxypropan-2-yl)-3-oxoicos-11-enamide] | suppressed | suppression effects | repair effects | decreased dependently on the concentration of the compound | Agonist | suppression effects | decrease effects | decrease effects | suppression effects |
| CCCCCCCC/C=C\CCCCCCCC(=O)C(CCCCCC/C=C\CCCCCCCC)C(=O)NCCO (stereo not drawn) [CBS004, (11Z)-2-((Z)-hexadec-7-enyl)-N-(2-hydroxyethyl)-3-oxoicos-11-enamide] | suppressed | suppression effects | repair effects | decreased dependently on the concentration of the compound | Agonist | suppression effects | decrease effects | decrease effects | suppression effects |
